# In PubChem BioAssay AID1963870 (Molecular Pharmacology Branch, DTP, NCI, 2024):
# Tested on: 292921-168-R-J2-PDC KRAS tumor spheroid viability
# Test: Anticancer human tumor 292921-168-R-J2-PDC patient-derived pancreatic carcinoma cell line growth inhibition [KRAS2]
# Settings: spheroids with HUVEC and MSC; for IC50: curve of first compound; for viability, T/C: stronger effect = lower value
# Procedure, shortened: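 KRAS-mutant tumor cells were grown as spheroids with HUVEC endothelial cells and human MSCs as stroma. Targeted agents were tested alone and with KRAS pathway inhibitors. Doses started at or near clinical Cmax, or 10 microM, descending half-log.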
# [1] = second compound 0.1 µM, first compound 0.0316 µM
# [2] = second compound 0.1 µM, first compound 0.1 µM
# [3] = second compound 0.1 µM, first compound 0.316 µM
# [4] = second compound 0.1 µM, first compound 1 µM
# [5] = second compound 0.1 µM, first compound 3.16 µM
# [6] = second compound 0.1 µM, first compound 10 µM
# [7] = second compound 0.316 µM, first compound 0.0316 µM
# [8] = second compound 0.316 µM, first compound 0.1 µM
# [9] = second compound 0.316 µM, first compound 0.316 µM
# [10] = second compound 0.316 µM, first compound 1 µM
# [11] = second compound 0.316 µM, first compound 3.16 µM
# [12] = second compound 0.316 µM, first compound 10 µM
# [13] = second compound 1 µM, first compound 0.0316 µM
# [14] = second compound 1 µM, first compound 0.1 µM
# [15] = second compound 1 µM, first compound 0.316 µM
# [16] = second compound 1 µM, first compound 1 µM
# [17] = second compound 1 µM, first compound 3.16 µM
# [18] = second compound 1 µM, first compound 10 µM
# [19] = second compound 3.16 µM, first compound 0.0316 µM
# [20] = second compound 3.16 µM, first compound 0.1 µM
# [21] = second compound 3.16 µM, first compound 0.316 µM
# [22] = second compound 3.16 µM, first compound 1 µM
# [23] = second compound 3.16 µM, first compound 3.16 µM
# [24] = second compound 3.16 µM, first compound 10 µM
# [25] = second compound 10 µM, first compound 0.0316 µM
# [26] = second compound 10 µM, first compound 0.1 µM
# [27] = second compound 10 µM, first compound 0.316 µM
# [28] = second compound 10 µM, first compound 1 µM
# [29] = second compound 10 µM, first compound 3.16 µM
# [30] = second compound 10 µM, first compound 10 µM
# [31] = second compound 0.1 µM, first compound 0.01 µM
# [32] = second compound 0.316 µM, first compound 0.01 µM
# [33] = second compound 1 µM, first compound 0.01 µM
# [34] = second compound 3.16 µM, first compound 0.01 µM
# [35] = second compound 10 µM, first compound 0.01 µM
# [36] = second compound 0.1 µM, first compound 0.00316 µM
# [37] = second compound 0.316 µM, first compound 0.00316 µM
# [38] = second compound 1 µM, first compound 0.00316 µM
# [39] = second compound 3.16 µM, first compound 0.00316 µM
# [40] = second compound 10 µM, first compound 0.00316 µM
# 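Note: drug exposure lasted seven days after spheroids formed for three days.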
# 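Throughout, for viability, T/C: percent of DMSO vehicle control viability which is 100%.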
SMILES,IC50 (second compound 0.1 µM) [nM],IC50 (second compound 0.316 µM) [nM],IC50 (second compound 1 µM) [nM],IC50 (second compound 3.16 µM) [nM],IC50 (second compound 10 µM) [nM],"viability, T/C [1] [%]","viability, T/C [2] [%]","viability, T/C [3] [%]","viability, T/C [4] [%]","viability, T/C [7] [%]","viability, T/C [8] [%]","viability, T/C [9] [%]","viability, T/C [10] [%]","viability, T/C [13] [%]","viability, T/C [14] [%]","viability, T/C [15] [%]","viability, T/C [19] [%]","viability, T/C [20] [%]","viability, T/C [25] [%]","viability, T/C [26] [%]",other results
CC(C)NCC(C(=O)N1CCN(c2ncnc3c2C(C)CC3O)CC1)c1ccc(Cl)cc1 (stereo not given) + COc1cc2nc(C)nc(NC(C)c3cc(N)cc(C(F)(F)F)c3)c2cc1OC1CCOC1,8850,8100,5010,1250,< 31.6,87.5,84.8,78.8,77.8,82.7,82,80.5,75.3,83.2,71.1,63.8,58.1,51.1,20.3,19.7,"viability, T/C [5]: 77.4%; viability, T/C [6]: 46.3%; viability, T/C [11]: 74.4%; viability, T/C [12]: 44.7%; viability, T/C [16]: 63.2%; viability, T/C [17]: 60.9%; viability, T/C [18]: 40.2%; viability, T/C [21]: 50.2%; viability, T/C [22]: 50.4%; viability, T/C [23]: 46.9%; viability, T/C [24]: 30.6%; viability, T/C [27]: 18.6%; viability, T/C [28]: 18%; viability, T/C [29]: 15.4%; viability, T/C [30]: 9.75%"
CC1COCCN1c1cc(-c2ccnn2C)c2ccnc(-c3ccn[nH]3)c2n1 (stereo not given) + COc1cc2nc(C)nc(NC(C)c3cc(N)cc(C(F)(F)F)c3)c2cc1OC1CCOC1,< 10,< 10,< 10,< 10,< 10,14.4,11.1,10.6,12.1,12.9,10.1,9.13,10.8,11.6,9.3,8.99,12.1,9.36,12.5,9.42,"viability, T/C [31]: 30.3%; viability, T/C [5]: 14.1%; viability, T/C [32]: 25.2%; viability, T/C [11]: 12.5%; viability, T/C [33]: 25.6%; viability, T/C [16]: 11.2%; viability, T/C [17]: 13.2%; viability, T/C [34]: 19.4%; viability, T/C [21]: 8.32%; viability, T/C [22]: 10.4%; viability, T/C [23]: 11.8%; viability, T/C [35]: 12.9%; viability, T/C [27]: 8.21%; viability, T/C [28]: 8.78%; viability, T/C [29]: 7.99%"
CCN1CCN(Cc2ccc(Nc3ncc(F)c(-c4cc(F)c5nc(C)n(C(C)C)c5c4)n3)nc2)CC1 + COc1cc2nc(C)nc(NC(C)c3cc(N)cc(C(F)(F)F)c3)c2cc1OC1CCOC1,20.7,13.2,9.76,3.28,< 3.16,42.2,36,29.8,22.2,39.2,32.8,28.4,22.1,40.3,30.8,25.7,30.8,22.9,14.7,14.8,"viability, T/C [36]: 74.7%; viability, T/C [31]: 60.1%; viability, T/C [37]: 67.4%; viability, T/C [32]: 54.1%; viability, T/C [38]: 60.7%; viability, T/C [33]: 49.7%; viability, T/C [16]: 21.3%; viability, T/C [39]: 51%; viability, T/C [34]: 35.6%; viability, T/C [21]: 22%; viability, T/C [22]: 18.6%; viability, T/C [40]: 22.8%; viability, T/C [35]: 15.9%; viability, T/C [27]: 12.2%; viability, T/C [28]: 0.58%"
Cn1nccc1Nc1nccc(-c2cc3c(s2)C(C)(C)N(CCN2CCOCC2)C3=O)n1 + COc1cc2nc(C)nc(NC(C)c3cc(N)cc(C(F)(F)F)c3)c2cc1OC1CCOC1,64.7,54.7,47.2,32.6,< 31.6,74.8,34.9,14.8,11.1,66.2,32.1,16.4,10.4,60.1,31.6,15.8,50.7,26.1,25.4,15.9,"viability, T/C [5]: 9.76%; viability, T/C [6]: 9.52%; viability, T/C [11]: 8.74%; viability, T/C [12]: 9.26%; viability, T/C [16]: 10.9%; viability, T/C [17]: 9.75%; viability, T/C [18]: 10.1%; viability, T/C [21]: 14.3%; viability, T/C [22]: 10.2%; viability, T/C [23]: 8.41%; viability, T/C [24]: 10.2%; viability, T/C [27]: 10.3%; viability, T/C [28]: 9.05%; viability, T/C [29]: 9.73%; viability, T/C [30]: 7.56%"
Cn1ncnc1[C@H]1c2n[nH]c(=O)c3cc(F)cc(c23)N[C@@H]1c1ccc(F)cc1 + COc1cc2nc(C)nc(NC(C)c3cc(N)cc(C(F)(F)F)c3)c2cc1OC1CCOC1,> 100,> 100,> 100,37.3,< 0.316,68.6,60.5,,,70.3,64.3,,,69.6,57.4,,52.1,42,23.6,23.9,"viability, T/C (second compound 0.1 µM, first compound 0.000316 µM): 93.5%; viability, T/C (second compound 0.1 µM, first compound 0.001 µM): 92.1%; viability, T/C [36]: 85.8%; viability, T/C [31]: 85.7%; viability, T/C (second compound 0.316 µM, first compound 0.000316 µM): 84.2%; viability, T/C (second compound 0.316 µM, first compound 0.001 µM): 87%; viability, T/C [37]: 84.8%; viability, T/C [32]: 84.4%; viability, T/C (second compound 1 µM, first compound 0.000316 µM): 84%; viability, T/C (second compound 1 µM, first compound 0.001 µM): 84.9%; viability, T/C [38]: 74.9%; viability, T/C [33]: 73.3%; viability, T/C (second compound 3.16 µM, first compound 0.000316 µM): 63.5%; viability, T/C (second compound 3.16 µM, first compound 0.001 µM): 60.1%; viability, T/C [39]: 56.4%; viability, T/C [34]: 57.7%; viability, T/C (second compound 10 µM, first compound 0.000316 µM): 26.1%; viability, T/C (second compound 10 µM, first compound 0.001 µM): 27.6%; viability, T/C [40]: 30.6%; viability, T/C [35]: 22.6%"
